Read-outs that look alike come from different tables or passages of the source.
Tests used:
A549 cells = assay: Cytotoxicity assay (AlamarBlue); details: read-out: CC50 (μM), cytotoxic concentration 50%; A549 cell line, 48 h
Method: Cytotoxicity Assay. The cytotoxicity of the compounds was analyzed by commercial kit AlamarBlue® (Invitrogen, Ref. DAL1025). A549 cells at a density of 5×10^3 cells per well in 96-well plates were seeded. […] Cells were then incubated at 37° C. for 48 h following the kit protocol. The cytotoxic concentration 50 (CC50) value was obtained using the statistical package GraphPad Prism. This assay was performed in duplicate.

HAdV5-GFP = assay: Plaque assay (inhibition of HAdV plaque formation); assay type: cell-based, HAdV-5; details: for Selectivity index (SI): ratio of CC50 to IC50 in plaque assay; for inhibition at 10 µM: read-out: Plaque Assay (%) Inhibition (10 μM)
Method: Plaque Assay. […] When cells reached 80-90% confluency, they were infected with HAdV5-GFP (0.06 vp/cell) and rocked for 2 h at 37° C. After the incubation the inoculum was removed, and the cells were washed once with PBS.
Plaque Assay. Compounds were tested using low MOI infections (0.06 vp/cell) and at concentrations of 10 μM and in a dose-response assay ranging from 10 to 0.3 μM in a plaque assay. […] When cells reached 80-90% confluency, they were infected with HAdV5-GFP (0.06 vp/cell) and rocked for 2 h at 37° C. After the incubation the inoculum was removed, and the cells were washed once with PBS. […] The mixture also contained the compounds in concentrations ranging from 10 to 0.3 μM.

[1] = read-out: Plaque Assay IC50 (μM), HAdV5-GFP, low MOI, 293β5 cell line

CC(C)[C@H](NC(=O)c1cc(Cl)ccc1O)C(=O)Nc1ccc(NC2CCCC2)cc1Cl [Compound 147, (S)-5-chloro-N-(1-((2-chloro-4-(cyclopentylamino)phenyl)amino)-3-methyl-1-oxobutan-2-yl)-2-hydroxybenzamide]
CC50 (A549 cells): 111 ± 8.4 µM | Selectivity index (SI) (HAdV5-GFP): 28.9 | inhibition at 10 µM (HAdV5-GFP): 99.5 ± 0.7% | IC50 (HAdV5-GFP; [1]): 3.83 ± 0.42 µM

O=C(NCc1ccc(Cl)cc1Cl)c1cc(Cl)ccc1O [Compound 32, 5-Chloro-N-(2,4-dichlorobenzyl)-2-hydroxybenzamide]
CC50 (A549 cells): 30.9 ± 13.6 µM | inhibition at 10 µM (HAdV5-GFP): 99.2 ± 0.4% | IC50 (HAdV5-GFP; [1]): 1.73 ± 0.51 µM

O=C(Nc1ccc(NCc2cc(F)cc(C(F)(F)F)c2)cc1Cl)c1cc(Cl)ccc1O [Compound 106, 5-Chloro-N-(2-chloro-4-((3-fluoro-5-(trifluoromethyl)benzyl)amino)phenyl)-2-hydroxybenzamide]
CC50 (A549 cells): 30.9 ± 4.8 µM | Selectivity index (SI) (HAdV5-GFP): 26.7 | inhibition at 10 µM (HAdV5-GFP): 100% | IC50 (HAdV5-GFP; [1]): 1.16 ± 0.13 µM

CCNc1ccc(NC(=O)c2cc(Cl)ccc2O)c(Cl)c1 [Compound 79, 5-Chloro-N-(2-chloro-4-(ethylamino)phenyl)-2-hydroxybenzamide]
CC50 (A549 cells): 30.2 ± 4.1 µM | Selectivity index (SI) (HAdV5-GFP): 13.9 | inhibition at 10 µM (HAdV5-GFP): 100% | IC50 (HAdV5-GFP; [1]): 2.18 µM

O=C(Cc1cc(Cl)ccc1O)Nc1cc(F)cc(C(F)(F)F)c1 [Compound 53, 2-(5-Chloro-2-hydroxyphenyl)-N-(3-fluoro-5-(trifluoromethyl)phenyl)acetamide]
CC50 (A549 cells): 23.7 ± 1.5 µM | Selectivity index (SI) (HAdV5-GFP): 4.8 | inhibition at 10 µM (HAdV5-GFP): 91 ± 3.6% | IC50 (HAdV5-GFP; [1]): 4.92 µM

O=C(NCCc1ccc(F)cc1)c1cc(Cl)ccc1O [Compound 52, 5-Chloro-N-(4-fluorophenethyl)-2-hydroxybenzamide]
CC50 (A549 cells): 154 µM | Selectivity index (SI) (HAdV5-GFP): 39.1 | inhibition at 10 µM (HAdV5-GFP): 98.7 ± 1.8% | IC50 (HAdV5-GFP; [1]): 3.94 µM

O=C(Nc1ccc(NCc2cc(C(F)(F)F)cc(C(F)(F)F)c2)cc1Cl)c1cc(Cl)ccc1O [Compound 107, N-(4-((3,5-Bis(trifluoromethyl)benzyl)amino)-2-chlorophenyl)-5-chloro-2-hydroxybenzamide]
CC50 (A549 cells): 92.8 µM | Selectivity index (SI) (HAdV5-GFP): 82.9 | inhibition at 10 µM (HAdV5-GFP): 100% | IC50 (HAdV5-GFP; [1]): 1.12 ± 0.49 µM

O=C(Nc1cc(F)cc(C(F)(F)F)c1)c1cccc(Cl)c1 [Compound 21, 3-Chloro-N-(3-fluoro-5-(trifluoromethyl)phenyl)benzamide]
CC50 (A549 cells): 38.6 ± 1.7 µM | Selectivity index (SI) (HAdV5-GFP): 6.9 | inhibition at 10 µM (HAdV5-GFP): 99.3 ± 0.9% | IC50 (HAdV5-GFP; [1]): 5.61 ± 0.37 µM

CC(C)[C@H](NC(=O)c1cc(Cl)ccc1O)C(=O)Nc1ccc(F)c(F)c1 [Compound 68, (S)-5-Chloro-N-(1-((3,4-difluorophenyl)amino)-3-methyl-1-oxobutan-2-yl)-2-hydroxybenzamide]
CC50 (A549 cells): 95 ± 18.7 µM | Selectivity index (SI) (HAdV5-GFP): 32.1 | inhibition at 10 µM (HAdV5-GFP): 98.3 ± 2.4% | IC50 (HAdV5-GFP; [1]): 2.96 µM

CC(C)Nc1ccc(NC(=O)c2cc(Cl)ccc2O)c(Cl)c1 [Compound 81, 5-Chloro-N-(2-chloro-4-(isopropylamino)phenyl)-2-hydroxybenzamide]
CC50 (A549 cells): 11 ± 1.4 µM | Selectivity index (SI) (HAdV5-GFP): 12.5 | inhibition at 10 µM (HAdV5-GFP): 100% | IC50 (HAdV5-GFP; [1]): 0.88 µM

O=C(Nc1cc(NC2CCCC2)ccc1F)c1cc(Cl)ccc1O [Compound 144, 5-Chloro-N-(5-(cyclopentylamino)-2-fluorophenyl)-2-hydroxybenzamide]
CC50 (A549 cells): 44 ± 12.8 µM | Selectivity index (SI) (HAdV5-GFP): 32.8 | inhibition at 10 µM (HAdV5-GFP): 99.8 ± 0.4% | IC50 (HAdV5-GFP; [1]): 1.34 ± 0.05 µM

CN(C)c1ccc(NC(=O)c2cc(Cl)ccc2O)c(Cl)c1 [Compound 89, 5-Chloro-N-(2-chloro-4-(dimethylamino)phenyl)-2-hydroxybenzamide]
CC50 (A549 cells): 85.1 ± 11.9 µM | Selectivity index (SI) (HAdV5-GFP): 44.3 | inhibition at 10 µM (HAdV5-GFP): 100% | IC50 (HAdV5-GFP; [1]): 1.92 ± 0.23 µM

CS(=O)(=O)Nc1ccc(Cl)cc1C(=O)NCC(=O)Nc1ccc([N+](=O)[O-])cc1Cl [Compound 72, 5-Chloro-N-(2-((2-chloro-4-nitrophenyl)amino)-2-oxoethyl)-2-(methylsulfonamido)benzamide]
CC50 (A549 cells): 141 ± 13.5 µM | Selectivity index (SI) (HAdV5-GFP): 14.6 | inhibition at 10 µM (HAdV5-GFP): 99.6 ± 5.5% | IC50 (HAdV5-GFP; [1]): 9.65 ± 0.01 µM

O=C(Nc1ccc(NCC2CC2)cc1Cl)c1cc(Cl)ccc1O [Compound 85, 5-Chloro-N-(2-chloro-4-((cyclopropylmethyl)amino)phenyl)-2-hydroxybenzamide]
CC50 (A549 cells): 14.4 µM | Selectivity index (SI) (HAdV5-GFP): 10.4 | inhibition at 10 µM (HAdV5-GFP): 100% | IC50 (HAdV5-GFP; [1]): 1.38 µM

O=C(Nc1ccc(NCc2ccc(C(F)(F)F)cc2)cc1Cl)c1cc(Cl)ccc1O [Compound 98, 5-Chloro-N-(2-chloro-4-((4-(trifluoromethyl)benzyl)amino)phenyl)-2-hydroxybenzamide]
CC50 (A549 cells): 62.7 ± 6.1 µM | Selectivity index (SI) (HAdV5-GFP): 43.8 | inhibition at 10 µM (HAdV5-GFP): 99.6 ± 0.6% | IC50 (HAdV5-GFP; [1]): 1.43 ± 0.29 µM

Cc1ccc(O)c(C(=O)Nc2cc(F)cc(C(F)(F)F)c2)c1 [Compound 19, N-(3-Fluoro-5-(trifluoromethyl)phenyl)-2-hydroxy-5-methylbenzamide]
CC50 (A549 cells): 15.2 µM | inhibition at 10 µM (HAdV5-GFP): 98 ± 2.8% | IC50 (HAdV5-GFP; [1]): 0.65 µM

COc1ccc(CNc2ccc(NC(=O)c3cc(Cl)ccc3O)c(Cl)c2)cc1 [Compound 100, 5-Chloro-N-(2-chloro-4-((4-methoxybenzyl)amino)phenyl)-2-hydroxybenzamide]
CC50 (A549 cells): 80.7 ± 8.2 µM | Selectivity index (SI) (HAdV5-GFP): 22.4 | inhibition at 10 µM (HAdV5-GFP): 100% | IC50 (HAdV5-GFP; [1]): 3.61 ± 0.4 µM

CC(C)[C@H](NC(=O)c1cc(Cl)ccc1O)C(=O)Nc1cc(C(F)(F)F)cc(C(F)(F)F)c1 [Compound 65, (S)—N-(1-((3,5-Bis(trifluoromethyl)phenyl)amino)-3-methyl-1-oxobutan-2-yl)-5-chloro-2-hydroxybenzamide]
CC50 (A549 cells): 30.9 µM | Selectivity index (SI) (HAdV5-GFP): 77.4 | inhibition at 10 µM (HAdV5-GFP): 99.5 ± 0.7% | IC50 (HAdV5-GFP; [1]): 0.4 µM

O=C(Nc1ccc(NCc2ccc(Br)cc2)cc1Cl)c1cc(Cl)ccc1O [Compound 97, N-(4-((4-Bromobenzyl)amino)-2-chlorophenyl)-5-chloro-2-hydroxybenzamide]
CC50 (A549 cells): 40.9 ± 2.2 µM | Selectivity index (SI) (HAdV5-GFP): 22.2 | inhibition at 10 µM (HAdV5-GFP): 100% | IC50 (HAdV5-GFP; [1]): 1.84 ± 0.1 µM

CC1(ON(c2ccc(NC(=O)c3cc(Cl)ccc3O)c(Cl)c2)C2(C)CCCC2)CCCC1 [Compound 93, 5-Chloro-N-(2-chloro-4-((1-methylcyclopentyl)((1-methylcyclopentyl)oxy)amino)phenyl)-2-hydroxybenzamide]
CC50 (A549 cells): 18 µM | Selectivity index (SI) (HAdV5-GFP): 24.3 | inhibition at 10 µM (HAdV5-GFP): 100% | IC50 (HAdV5-GFP; [1]): 0.74 µM

O=C(Nc1ccc(NC2CCCC2)c(Cl)c1)c1cc(Cl)ccc1O [Compound 143, 5-Chloro-N-(3-chloro-4-(cyclopentylamino)phenyl)-2-hydroxybenzamide]
CC50 (A549 cells): 16.9 ± 0.1 µM | Selectivity index (SI) (HAdV5-GFP): 20.1 | inhibition at 10 µM (HAdV5-GFP): 100% | IC50 (HAdV5-GFP; [1]): 0.84 µM | IC50 (HAdV5-GFP; read-out: Plaque Assay IC50, HAdV5-GFP, low MOI, 293β5 cell line): 1.34 µM

CCN(CC)c1ccc(NC(=O)c2cc(Cl)ccc2O)c(Cl)c1 [Compound 90, 5-Chloro-N-(2-chloro-4-(diethylamino)phenyl)-2-hydroxybenzamide]
CC50 (A549 cells): 55.5 ± 10.2 µM | Selectivity index (SI) (HAdV5-GFP): 64.5 | inhibition at 10 µM (HAdV5-GFP): 100% | IC50 (HAdV5-GFP; [1]): 0.86 ± 0.19 µM

O=C(NCc1ccc([N+](=O)[O-])cc1Cl)c1cc(Cl)ccc1O [Compound 30, 5-Chloro-N-(2-chloro-4-nitrobenzyl)-2-hydroxybenzamide]
CC50 (A549 cells): 51.4 ± 3.7 µM | inhibition at 10 µM (HAdV5-GFP): 100% | IC50 (HAdV5-GFP; [1]): 1.4 ± 0.11 µM

O=C(NCc1ccc(F)cc1Cl)c1cc(Cl)ccc1O [Compound 31, 5-Chloro-N-(2-chloro-4-fluorobenzyl)-2-hydroxybenzamide]
CC50 (A549 cells): 30.9 ± 10.2 µM | Selectivity index (SI) (HAdV5-GFP): 12.1 | inhibition at 10 µM (HAdV5-GFP): 97.1 ± 4.1% | IC50 (HAdV5-GFP; [1]): 2.56 ± 0.06 µM

CC(C)(C)OC(=O)CC[C@H](NC(=O)c1cc(Cl)ccc1O)C(=O)Nc1ccc([N+](=O)[O-])cc1Cl [Compound 64, (S)-tert-Butyl 4-(5-chloro-2-hydroxybenzamido)-5-((2-chloro-4-nitrophenyl)amino)-5-oxopentanoate]
CC50 (A549 cells): 22.9 µM | Selectivity index (SI) (HAdV5-GFP): 34.2 | inhibition at 10 µM (HAdV5-GFP): 97.3 ± 0.3% | IC50 (HAdV5-GFP; [1]): 0.67 µM

CCCNc1ccc(NC(=O)c2cc(Cl)ccc2O)c(Cl)c1 [Compound 80, 5-Chloro-N-(2-chloro-4-(propylamino)phenyl)-2-hydroxybenzamide]
CC50 (A549 cells): 22.5 ± 10.6 µM | Selectivity index (SI) (HAdV5-GFP): 4.5 | inhibition at 10 µM (HAdV5-GFP): 100% | IC50 (HAdV5-GFP; [1]): 5.04 µM

O=C(CNC(=O)c1cc(Cl)ccc1O)Nc1ccc([N+](=O)[O-])cc1Cl [Compound 56, 5-Chloro-N-(2-((2-chloro-4-nitrophenyl)amino)-2-oxoethyl)-2-hydroxybenzamide]
CC50 (A549 cells): 129 µM | Selectivity index (SI) (HAdV5-GFP): 53.2 | inhibition at 10 µM (HAdV5-GFP): 100% | IC50 (HAdV5-GFP; [1]): 2.43 µM

O=C(Nc1ccc(NCc2ccc(Br)s2)cc1Cl)c1cc(Cl)ccc1O [Compound 113, N-(4-(((5-Bromothiophen-2-yl)methyl)amino)-2-chlorophenyl)-5-chloro-2-hydroxybenzamide]
CC50 (A549 cells): 20.7 ± 4.6 µM | Selectivity index (SI) (HAdV5-GFP): 8.0 | inhibition at 10 µM (HAdV5-GFP): 100% | IC50 (HAdV5-GFP; [1]): 2.58 µM

O=C(Nc1ccc(NC2CCCCC2)cc1Cl)c1cc(Cl)ccc1O [Compound 88, 5-Chloro-N-(2-chloro-4-(cyclohexylamino)phenyl)-2-hydroxybenzamide]
CC50 (A549 cells): 68.3 µM | Selectivity index (SI) (HAdV5-GFP): 51.1 | inhibition at 10 µM (HAdV5-GFP): 99.5 ± 0.7% | IC50 (HAdV5-GFP; [1]): 1.34 µM
